{"source": "patent US8907128B2", "about": "“Boron compound with amino acid skeleton containing cyclo ring-type ring” (Stella Pharma Corporation, priority 2010, dated 2014)", "tested_on": "rat glima cells (C6)", "experiment": "Cytotoxicity test (WST-8)", "assay_type": "cell-based", "conditions": "48 hours culture with boron agent, WST-8 absorbance at 450 nm", "experimental": "Using a 96-well microplate, rat glima cells (C6) were seeded at a density of 1.5×10^4 cells/ml per well and then cultured at room temperature (37° C., 5% CO2) for 16 hours. The culture fluid was taken out by suction and the culture fluids containing boron agents at various concentrations obtained in the Examples were added to respective wells in an amount of […] each. After culturing at room temperature (37° C., 5% CO2) for 48 hours, the culture fluid was taken out by suction, […] portions of WST-8 solution were added respectively, and culture was further carried out at room temperature (37° C., 5% CO2) for 4 hours. Using a microplate reader, the absorbance at a wavelength of 450 nm (reference wavelength: 655 nm) was measured and the absorbance of wells not containing cells was employed as background control, to determine each IC50 value.", "data": [{"compound": "1-amino-4-[(undecahydrododecaboranyl-thio)methyl]cyclohexanone-1-carboxylic acid disodium salt [cis-ACHC-BSH]", "values": [{"measurement": "IC50", "result": "< 300", "unit": "µM"}]}, {"compound": "cis-1-amino-3-(dodecaboranylthiomethyl)cyclobutanecarboxylic acid trisodium salt [cis-ACBC-BSH]", "values": [{"measurement": "IC50", "result": 2500, "unit": "µM"}]}, {"compound": "trans-1-amino-3-(dodecaboranylthiomethyl)cyclobutane-carboxylic acid trisodium salt [trans-ACBC-BSH]", "values": [{"measurement": "IC50", "result": 2100, "unit": "µM"}]}, {"compound": "N[C@@H](Cc1ccc(B(O)O)cc1)C(=O)O", "note": "[L-BPA, 4-borono-L-phenylalanine, reference compound]", "values": [{"measurement": "IC50", "setting": "Rattus norvegicus", "result": "> 2000", "unit": "µM"}]}]}
